Results from US8598383B2, “Pharmaceutical composition for treating or preventing degenerative and inflammatory diseases” (Neurotech Pharmaceuticals Co., Ltd., priority 2006, dated 2013).

Columns and labels:
[1] = test system: TNF-alpha in exudation of air pouch; assay: Zymosan air pouch inflammation model, TNF-alpha (ELISA); assay type: in vivo; details: over 30 mg/kg, once oral 1 hour before zymosan, 4 hours later
Experimental: FIG. 12 is results showing efficacy of compound 2 through the levels of TNF-alpha induced by zymosan, one of arthritis animal models. 1% zymosan was administered with air pouch, and compound 2 was once orally administered according to indicated dose 1 hour before administration of zymosan. The level of TNF-alpha in an exudation of air pouch was evaluated by ELISA method 4 hours later.
Anti-inflammation effect of compound 2 in arthritis model was evaluated with zymosan. 0.5 ml of 1% zymosan was administered with air pouch, and 3-300 mg/kg of compound 2 was once orally administered 1 hour before administration of zymosan. Edema, a main symptom of arthritis, and the level of cytokine were observed 4 hours later.

[2] = test system: collagen-induced arthritis; assay: Collagen-induced arthritis model (arthritic index); assay type: in vivo, mouse; details: 25 mg/kg/day intraperitoneal
Experimental: FIG. 15 is results showing efficacy through arthritis animal model induced by collagen. 25 mg/kg of compound 2, 3 or 18, or methotrexate (control, MTX, 1 mg/kg/week) was intraperitoneally injected after administration of collagen.
FIG. 16 is results showing efficacy of compounds 6 and 11 through arthritis animal model induced by collagen. Collagen was intradermally injected two times with 2 week-interval. One week later, compound 6, compound 11 and methotrexate (control) were intraperitoneally injected. Then, the animals were observed everyday for 2-3 weeks, and results was evaluated by arthritis index.
To evaluate the efficacy of the 2-hydroxybenzoic acid derivative, collagen-induced arthritis model (rheumarthritis animal model) was used. Bovine type II collagen was mixed with complete Freund's adjuvant to make an emulsion, and the emulsion was intradermally injected into the origin site of 8˜10 week-old DBA/1LacJ mouse tail. Intradermal boosting was performed by the same method 2 weeks later. 25 mg/kg/day of compounds 2, 3 and 18, 1 mg/kg/week of methotrexate (comparative example) or 10% vehicle (control) were intraperitoneally injected one week after the second intradermal injection of collagen (FIG. 15). Pictures of foot edema of normal rat (sham), collagen-administered rat (collagen) and compound 18-administered rat (compound 18, 25 mg/kg/day injection) were shown in FIG. 14.
In addition, 50 mg/kg/day of compounds 6 and 11, and 5 mg/kg/2 days of methotrexate (comparative example) were intraperitoneally injected. Phosphate buffered saline was injected as control (FIG. 16). For 2˜3 weeks, the degree of arthritis was observed everyday, and the result was evaluated according to the below arthritic index using edema.
4 paws were evaluated as from 0 to 4 point, Total points: 16

TNF-α and IL-1β mRNA = assay: Cytokine mRNA expression in G93A mouse (RT-PCR); assay type: in vivo; details: 5 mg/kg/day in chow, 16 week-old, lumbar segments
Experimental: FIG. 30 is results showing the levels of mRNA of inflammatory cytokines (TNF-α and IL-1β), markers of inflammation, in G93A mouse. RT-PCR (Reverse Transcription-Polymerase Chain Reaction) was used.
Lumbar segments of 16 week-old G93A mice fed with general chow only, and 16 week-old G93A mice fed with chow containing 5 mg/kg/day of compound 2 were extracted and their RNA were separated. The mRNA expression degrees of TNF-α and IL-1β, inflammatory cytokines, were evaluated through RT-PCT.

Question: Which results are given for `O=C(O)c1cc(NCCc2ccc(C(F)(F)F)cc2)ccc1O` [compound 2, 2-hydroxy-5-[2-(4-trifluoromethyl-phenyl)-ethylamino]-benzoic acid]?
Answer: level of TNF-alpha [1]: decreased the level of TNF-alpha more than control; arthritic index [2]: apparent reducing effect; mRNA expression of TNF-α and IL-1β (TNF-α and IL-1β mRNA): effectively reduced inflammatory cytokines
